Calls of active or inactive are those of the source. No cut-off for these calls is given here.
How the values were obtained:
Format in all cases: functional
Staphylococcus aureus [1] = assay: Antibacterial activity against Staphylococcus aureus assessed as growth inhibition at 600 ug/ml by NCCLS […] method; conditions: read-out: IZ
Bacillus pumilus [2] = assay: Antibacterial activity against Bacillus pumilus assessed as growth inhibition at 900 ug/ml by NCCLS […] method
Bacillus pumilus [3] = assay: Antibacterial activity against Bacillus pumilus assessed as growth inhibition at 600 ug/ml by NCCLS […] method
Priestia megaterium [4] = assay: Antibacterial activity against Bacillus megaterium assessed as growth inhibition at 900 ug/ml by NCCLS […] method; conditions: read-out: IZ
Priestia megaterium [5] = assay: Antibacterial activity against Bacillus megaterium assessed as growth inhibition at 600 ug/ml by NCCLS […] method; conditions: read-out: IZ
Bacillus subtilis [6] = assay: Antibacterial activity against Bacillus subtilis assessed as growth inhibition at 900 ug/ml by NCCLS […] method; conditions: read-out: IZ
Bacillus subtilis [7] = assay: Antibacterial activity against Bacillus subtilis assessed as growth inhibition at 600 ug/ml by NCCLS […] method; conditions: read-out: IZ
Klebsiella aerogenes [8] = assay: Antibacterial activity against Enterobacter aerogenes assessed as growth inhibition at 900 ug/ml by NCCLS […] method; conditions: read-out: IZ
Klebsiella aerogenes [9] = assay: Antibacterial activity against Enterobacter aerogenes assessed as growth inhibition at 600 ug/ml by NCCLS […] method; conditions: read-out: IZ
Klebsiella pneumoniae [10] = assay: Antibacterial activity against Klebsiella pneumoniae assessed as growth inhibition at 900 ug/ml by NCCLS […] method; conditions: read-out: IZ
Klebsiella pneumoniae [11] = assay: Antibacterial activity against Klebsiella pneumoniae assessed as growth inhibition at 600 ug/ml by NCCLS […] method; conditions: read-out: IZ
Proteus mirabilis [12] = assay: Antibacterial activity against Proteus mirabilis assessed as growth inhibition at 900 ug/ml by NCCLS […] method; conditions: read-out: IZ
Proteus mirabilis [13] = assay: Antibacterial activity against Proteus mirabilis assessed as growth inhibition at 600 ug/ml by NCCLS […] method; conditions: read-out: IZ
Proteus vulgaris [14] = assay: Antibacterial activity against Proteus vulgaris assessed as growth inhibition at 900 ug/ml by NCCLS […] method; conditions: read-out: IZ
Proteus vulgaris [15] = assay: Antibacterial activity against Proteus vulgaris assessed as growth inhibition at 600 ug/ml by NCCLS […] method; conditions: read-out: IZ
Escherichia coli [16] = assay: Antibacterial activity against Escherichia coli assessed as growth inhibition at 900 ug/ml by NCCLS […] method
Fusarium oxysporum [17] = assay: Antifungal activity against Fusarium oxysporum assessed as growth inhibition at 900 ug/ml
Fusarium oxysporum [18] = assay: Antifungal activity against Fusarium oxysporum assessed as growth inhibition at 600 ug/ml
Fusarium oxysporum [19] = assay: Antifungal activity against Fusarium oxysporum assessed as growth inhibition at 300 ug/ml
Candida albicans [20] = assay: Antifungal activity against Candida albicans assessed as growth inhibition at 1200 ug/ml; conditions: read-out: IZ
Candida albicans [21] = assay: Antifungal activity against Candida albicans assessed as growth inhibition at 900 ug/ml; conditions: read-out: IZ
Candida albicans [22] = assay: Antifungal activity against Candida albicans assessed as growth inhibition at 600 ug/ml; conditions: read-out: IZ
Candida albicans [23] = assay: Antifungal activity against Candida albicans assessed as growth inhibition at 300 ug/ml; conditions: read-out: IZ
Streptococcus pyogenes [24] = assay: Antibacterial activity against Streptococcus pyogenes assessed as growth inhibition at 600 ug/ml by NCCLS […] method; conditions: read-out: IZ
Streptococcus pyogenes [25] = assay: Antibacterial activity against Streptococcus pyogenes assessed as growth inhibition at 900 ug/ml by NCCLS […] method; conditions: read-out: IZ
Staphylococcus aureus [26] = assay: Antibacterial activity against Staphylococcus aureus assessed as growth inhibition at 900 ug/ml by NCCLS […] method; conditions: read-out: IZ
Escherichia coli [27] = assay: Antibacterial activity against Escherichia coli assessed as growth inhibition at 600 ug/ml by NCCLS […] method
Colletotrichum falcatum [28] = assay: Antifungal activity against Glomerella tucumanensis assessed as growth inhibition at 1200 ug/ml; conditions: read-out: IZ
Colletotrichum falcatum [29] = assay: Antifungal activity against Glomerella tucumanensis assessed as growth inhibition at 900 ug/ml; conditions: read-out: IZ
Colletotrichum falcatum [30] = assay: Antifungal activity against Glomerella tucumanensis assessed as growth inhibition at 600 ug/ml; conditions: read-out: IZ
Colletotrichum falcatum [31] = assay: Antifungal activity against Glomerella tucumanensis assessed as growth inhibition at 300 ug/ml; conditions: read-out: IZ
Exserohilum rostratum [32] = assay: Antifungal activity against Setosphaeria rostrata assessed as growth inhibition at 1200 ug/ml; conditions: read-out: IZ
Exserohilum rostratum [33] = assay: Antifungal activity against Setosphaeria rostrata assessed as growth inhibition at 900 ug/ml; conditions: read-out: IZ
Exserohilum rostratum [34] = assay: Antifungal activity against Setosphaeria rostrata assessed as growth inhibition at 600 ug/ml; conditions: read-out: IZ
Exserohilum rostratum [35] = assay: Antifungal activity against Setosphaeria rostrata assessed as growth inhibition at 300 ug/ml; conditions: read-out: IZ
Fusarium oxysporum [36] = assay: Antifungal activity against Fusarium oxysporum assessed as growth inhibition at 1200 ug/ml

In the case of COc1ccc2c(OCCCN3CCN(Cc4cccnc4)CC3)c(-c3ccccc3)c(=O)oc2c1, the zone of inhibition at 600 µg/mL (Staphylococcus aureus [1]) is reported as 11.6 mm, the “growth inhibition (GI)” value (Bacillus pumilus [2]) is reported as “inactive” and the “growth inhibition (GI)” value (Bacillus pumilus [3]) is reported as “inactive”. It also gave a zone of inhibition at 900 µg/mL (Priestia megaterium [4]) of 13.4 mm, a zone of inhibition at 600 µg/mL (Priestia megaterium [5]) of 7.65 mm and a zone of inhibition at 900 µg/mL (Bacillus subtilis [6]) of 15.1 mm. It also gave a zone of inhibition at 600 µg/mL (Bacillus subtilis [7]) of 8.76 mm, a zone of inhibition at 900 µg/mL (Klebsiella aerogenes [8]) of 8.56 mm and a zone of inhibition at 600 µg/mL (Klebsiella aerogenes [9]) of 4.22 mm. The zone of inhibition at 900 µg/mL (Klebsiella pneumoniae [10]) was 7.93 mm, the zone of inhibition at 600 µg/mL (Klebsiella pneumoniae [11]) was 3.78 mm and the zone of inhibition at 900 µg/mL (Proteus mirabilis [12]) was 21.6 mm. The zone of inhibition at 600 µg/mL (Proteus mirabilis [13]) was 11.3 mm, the zone of inhibition at 900 µg/mL (Proteus vulgaris [14]) was 17.1 mm and the zone of inhibition at 600 µg/mL (Proteus vulgaris [15]) was 8.76 mm. For the same compound, the zone of inhibition at 900 µg/mL (Escherichia coli [16]; read-out: IZ) was 6.21 mm, the zone of inhibition at 900 µg/mL (Fusarium oxysporum [17]; read-out: IZ) was 18.8 mm and the zone of inhibition at 600 µg/mL (Fusarium oxysporum [18]; read-out: IZ) was 8.78 mm. For the same compound, the zone of inhibition at 300 µg/mL (Fusarium oxysporum [19]; read-out: IZ) was 3.47 mm, the zone of inhibition at 1200 µg/mL (Candida albicans [20]) was 24.6 mm and the zone of inhibition at 900 µg/mL (Candida albicans [21]) was 13.7 mm. For the same compound, the zone of inhibition at 600 µg/mL (Candida albicans [22]) was 6.14 mm, the zone of inhibition at 300 µg/mL (Candida albicans [23]) was 3.21 mm and the zone of inhibition at 600 µg/mL (Streptococcus pyogenes [24]) was 9.12 mm. The zone of inhibition at 900 µg/mL (Streptococcus pyogenes [25]) was 16.8 mm, the zone of inhibition at 900 µg/mL (Staphylococcus aureus [26]) was 21.4 mm and the zone of inhibition at 600 µg/mL (Escherichia coli [27]; read-out: IZ) was 3.87 mm. It also gave a zone of inhibition at 1200 µg/mL (Colletotrichum falcatum [28]) of 27 mm, a zone of inhibition at 900 µg/mL (Colletotrichum falcatum [29]) of 13.2 mm and a zone of inhibition at 600 µg/mL (Colletotrichum falcatum [30]) of 7.76 mm. It also gave a zone of inhibition at 300 µg/mL (Colletotrichum falcatum [31]) of 4.45 mm, a zone of inhibition at 1200 µg/mL (Exserohilum rostratum [32]) of 23.4 mm and a zone of inhibition at 900 µg/mL (Exserohilum rostratum [33]) of 11.9 mm. The zone of inhibition at 600 µg/mL (Exserohilum rostratum [34]) was 6.76 mm, the zone of inhibition at 300 µg/mL (Exserohilum rostratum [35]) was 2.9 mm and the zone of inhibition at 1200 µg/mL (Fusarium oxysporum [36]; read-out: IZ) was 27.9 mm.

COc1ccc(CN2CCN(CCCOc3c(-c4ccccc4)c(=O)oc4cc(OC)ccc34)CC2)cc1 showed a zone of inhibition at 600 µg/mL (Staphylococcus aureus [1]) of 3 mm, a zone of inhibition at 900 µg/mL (Bacillus pumilus [2]; read-out: IZ) of 10.5 mm and a zone of inhibition at 600 µg/mL (Bacillus pumilus [3]; read-out: IZ) of 5.25 mm. For the same compound, the zone of inhibition at 900 µg/mL (Priestia megaterium [4]) was 8.19 mm, the zone of inhibition at 600 µg/mL (Priestia megaterium [5]) was 4.26 mm and the zone of inhibition at 900 µg/mL (Bacillus subtilis [6]) was 8.9 mm. The zone of inhibition at 600 µg/mL (Bacillus subtilis [7]) was 4.28 mm, the zone of inhibition at 900 µg/mL (Klebsiella aerogenes [8]) was 8.9 mm and the zone of inhibition at 600 µg/mL (Klebsiella aerogenes [9]) was 4.24 mm. For the same compound, the zone of inhibition at 900 µg/mL (Klebsiella pneumoniae [10]) was 10.1 mm, the zone of inhibition at 600 µg/mL (Klebsiella pneumoniae [11]) was 5.48 mm and the zone of inhibition at 900 µg/mL (Proteus mirabilis [12]) was 10.5 mm. For the same compound, the zone of inhibition at 600 µg/mL (Proteus mirabilis [13]) was 5.25 mm, the zone of inhibition at 900 µg/mL (Proteus vulgaris [14]) was 4.25 mm and the zone of inhibition at 600 µg/mL (Proteus vulgaris [15]) was 2 mm. For the same compound, the “growth inhibition (GI)” value (Escherichia coli [16]) was “inactive”, the “growth inhibition (GI)” value (Fusarium oxysporum [17]) was “inactive” and the “growth inhibition (GI)” value (Fusarium oxysporum [18]) was “inactive”. The “growth inhibition (GI)” value (Fusarium oxysporum [19]) was “inactive”, the zone of inhibition at 1200 µg/mL (Candida albicans [20]) was 23.2 mm and the zone of inhibition at 900 µg/mL (Candida albicans [21]) was 11 mm. The zone of inhibition at 600 µg/mL (Candida albicans [22]) was 5.62 mm, the zone of inhibition at 300 µg/mL (Candida albicans [23]) was 2.76 mm and the zone of inhibition at 600 µg/mL (Streptococcus pyogenes [24]) was 2.08 mm. For the same compound, the zone of inhibition at 900 µg/mL (Streptococcus pyogenes [25]) was 4.19 mm, the zone of inhibition at 900 µg/mL (Staphylococcus aureus [26]) was 6.25 mm and the “growth inhibition (GI)” value (Escherichia coli [27]) was “inactive”. For the same compound, the zone of inhibition at 1200 µg/mL (Colletotrichum falcatum [28]) was 31.8 mm, the zone of inhibition at 900 µg/mL (Colletotrichum falcatum [29]) was 17 mm and the zone of inhibition at 600 µg/mL (Colletotrichum falcatum [30]) was 8.62 mm. It also gave a zone of inhibition at 300 µg/mL (Colletotrichum falcatum [31]) of 4.08 mm, a zone of inhibition at 1200 µg/mL (Exserohilum rostratum [32]) of 28.8 mm and a zone of inhibition at 900 µg/mL (Exserohilum rostratum [33]) of 15 mm. The zone of inhibition at 600 µg/mL (Exserohilum rostratum [34]) was 7.56 mm, the zone of inhibition at 300 µg/mL (Exserohilum rostratum [35]) was 3.8 mm and the “growth inhibition (GI)” value (Fusarium oxysporum [36]) was “inactive”.

Source: ChEMBL document CHEMBL3045792, “Synthesis, antimicrobial activity, and molecular modeling of novel 4-(3-(4-benzylpiperazin-1-yl)propoxy)-7-methoxy-3-substituted phenyl-2H-chromen-2-one” (2013)
